{"source": "patent US5300629A", "about": "“Bactericidal and/or bacteriostatic peptides isolated from hemolymph of honeybees” (Plant Genetic Systems, N.V., priority 1987, dated 1994)", "format_in_all_cases": "cell-based", "key": {"[1]": {"system": "Proteus morganii CuETM 77-83", "assay": "Inhibition zone assay", "set-up": "key: --: \"-\" means that no inhibition has been found", "conditions": "I and B 10 ul, L 5 ug"}, "[2]": {"system": "Xanthomonas campestris pv. vesicatoria XV82-4", "assay": "Inhibition zone assay", "set-up": "key: --: \"-\" means that no inhibition has been found", "conditions": "I and B 10 ul, L 5 ug"}, "[3]": {"system": "Staphylococcus aureus STA 1", "assay": "Inhibition zone assay", "set-up": "key: --: \"-\" means that no inhibition has been found", "conditions": "I 10 ul"}, "[4]": {"system": "Rhizobium phaseoli CIAT 899", "assay": "Inhibition zone assay", "set-up": "key: --: \"-\" means that no inhibition has been found", "conditions": "I and B 10 ul, L 5 ug"}, "E. coli NCTC 9001": {"system": "E. coli NCTC 9001", "assay": "Killing assay, growth inhibition in liquid medium", "conditions": "purified factors in PBS (7.5% LPG), 10^3 cells, optical density at 630 nm", "description": "Bacterial development was monitored by measuring the optical densities and by plate counts. […] The purified factors resuspended in PBS (7.5% LPG) (FIG. 4A, 4B, 4C, 4D) were inoculated with 10^4 cells (C) or 10^3 cells (A, B and D) . Bacterial development was calculated by measuring the optical densities at 630 nm."}, "[5]": {"system": "Rhodococcus equi ATCC 25729", "assay": "Inhibition zone assay", "set-up": "key: --: \"-\" means that no inhibition has been found", "conditions": "I and B 10 ul, L 5 ug"}, "[6]": {"system": "Bordetella bronchiseptica ATCC 19395", "assay": "Inhibition zone assay", "set-up": "key: --: \"-\" means that no inhibition has been found", "conditions": "I and B 10 ul, L 5 ug"}, "[7]": {"system": "Yersinia enterocolitica PGS C-1106", "assay": "Inhibition zone assay", "set-up": "key: --: \"-\" means that no inhibition has been found", "conditions": "* synthetic ApidIa and heattreated immune lymph instead of Bee6 and native immune lymph"}, "S. cerevisiae": {"system": "S. cerevisiae", "assay": "Growth-inhibition zone assay, first screening", "description": "(§1) Whole lymph or purified components, resuspended in PBS to a final volume equal to the starting material (heated lymph), was applied in 3 mm wells on agar plates seeded with the test organisms. Antibacterial activity was determined by measuring the growth-inhibition zones (in mm)."}, "D. hansenii": {"system": "D. hansenii", "assay": "Growth-inhibition zone assay, first screening", "description": "as §1"}, "[8]": {"system": "Rhodococcus terrae ATCC 25594", "assay": "Inhibition zone assay", "set-up": "key: --: \"-\" means that no inhibition has been found", "conditions": "I and B 10 ul"}, "[9]": {"system": "Xanthomonas campestris pv. campestris A 902", "assay": "Inhibition zone assay", "set-up": "key: --: \"-\" means that no inhibition has been found", "conditions": "* synthetic ApidIa and heattreated immune lymph instead of Bee6 and native immune lymph"}, "[10]": {"system": "Staphylococcus hominis STH B3", "assay": "Inhibition zone assay", "set-up": "key: --: \"-\" means that no inhibition has been found", "conditions": "L 5 ug"}, "Proteus mirabilis AU 87": {"system": "Proteus mirabilis AU 87", "assay": "Inhibition zone assay", "set-up": "key: --: \"-\" means that no inhibition has been found", "conditions": "I and B 10 ul"}}, "note": "Where a SMILES comes first, the peptide text is derived from it.", "data": [{"smiles": "CC[C@H](C)[C@H](NC(=O)[C@H](CCCCN)NC(=O)[C@@H]1CCCN1C(=O)[C@H](CC(N)=O)NC(=O)[C@H](Cc1ccccc1)NC(=O)[C@@H]1CCCN1C(=O)CNC(=O)[C@H](CCC(N)=O)NC(=O)CNC(=O)[C@@H]1CCCN1C(=O)[C@H](Cc1ccccc1)NC(=O)[C@@H](NC(=O)[C@@H]1CCCN1C(=O)[C@H](Cc1ccccc1)NC(=O)[C@@H]1CCCN1C(=O)[C@H](CCCNC(=N)N)NC(=O)[C@H](CCCNC(=N)N)NC(=O)CNC(=O)[C@@H]1CCCN1C(=O)[C@H](CCC(N)=O)NC(=O)[C@@H]1CCCN1C(=O)[C@@H](NC(=O)[C@H](CC(N)=O)NC(=O)[C@@H]1CCCN1C(=O)[C@H](CC(C)C)NC(=O)[C@@H]1CCCN1C(=O)[C@@H](NC(=O)[C@@H](N)Cc1ccc(O)cc1)C(C)C)C(C)C)[C@@H](C)O)C(=O)N[C@@H](CCCCN)C(=O)N[C@@H](Cc1c[nH]c2ccccc12)C(=O)N1CCC[C@H]1C(=O)N[C@@H](CCC(N)=O)C(=O)NCC(=O)N[C@@H](Cc1ccc(O)cc1)C(=O)O", "note": "[bee 9] (H-YVPLPNVPQPGRRPFPTFPGQGPFNPKIKWPQGY-OH)", "values": [{"measurement": "diameter of growth-inhibition zone", "setting": "[1]", "value": "--"}, {"measurement": "diameter of growth-inhibition zone", "setting": "[2]", "value": "--"}, {"measurement": "diameter of growth-inhibition zone", "setting": "[3]", "value": "--"}, {"measurement": "diameter of growth-inhibition zone", "setting": "[4]", "value": "--"}, {"measurement": "activity, growth inhibition in liquid medium", "setting": "E. coli NCTC 9001", "value": "neither susceptible"}, {"measurement": "diameter of growth-inhibition zone", "setting": "[5]", "value": "--"}, {"measurement": "diameter of growth-inhibition zone", "setting": "[6]", "value": "--"}, {"measurement": "diameter of growth-inhibition zone", "setting": "[7]", "value": "--"}, {"measurement": "susceptibility of eucaryote strain", "setting": "S. cerevisiae", "value": "resistant"}, {"measurement": "susceptibility of eucaryote strain", "setting": "D. hansenii", "value": "resistant"}, {"measurement": "diameter of growth-inhibition zone", "setting": "[8]", "value": "--"}, {"measurement": "diameter of growth-inhibition zone", "setting": "[9]", "value": "--"}, {"measurement": "diameter of growth-inhibition zone", "setting": "[10]", "value": "--"}, {"measurement": "diameter of growth-inhibition zone", "setting": "Proteus mirabilis AU 87", "value": "--"}]}]}
